The subject of assay [1] is HUVEC. The assay is described as follows: XTT cytotoxicity/proliferation assay, HUVEC. Type of assay: cell-based, human. The note with it: Homo sapiens, HUVEC. As for the experimental part:
To assess the antiproliferative effects of the tested substances in vitro, tumor cell line CCRF-CEM derived from acute lymphoblastic leukemia and normal (healthy) HUVEC endothelial cells from umbilical vein were used. Both of these cell lines were cultured under optimal conditions for their growth in the appropriate medium in plastic bottles or plastic Petri dishes of various sizes (TPP, BD Biosciences) at 37° C., 5% CO2 and 95% humidity. HUVEC cells were purchased from BD Biosciences. CCRF-CEM cell line was obtained from ATCC/LGC Standards (American Type Cell Collection). Normal human endothelial cells from the umbilical vein are adherent cells, which were grown in plastic Petri dishes coated with collagen I. The culture medium (E-STIMTM; BD Biosciences, cat. […] Then, 5 ml of complete culture media E-STIM™ was added and the cells were centrifuged (180×g, 7 minutes), resuspended and transferred in a desired amount in a new Petri dish with fresh medium. In the experiments cells between passages 3 and 8 (after thawing) were used. Population doubling time of HUVEC cells under the used culture conditions is 38 hours. For testing of the sensitivity of cell lines to studied helquats XTT cytotoxicity/proliferation assay for determination of cell viability was used. This method is based on the ability of metabolically active cells to reduce the yellow tetrazolium salt XTT to orange formazan. The rate of conversion is measured as the increase in absorbance at 492 nm and is proportional to the enzymatic activity of mitochondrial dehydrogenases and thus the number of metabolically active (viable) cells. […] Thus it reflects the effectiveness of the test substance towards the tested cell line. Cells in exponential growth phase were plated into 96-well microtiter plate at a concentration of 3000 cells per well. Each well contained 90 μl of cell suspension. The following day, 10 μl of 10× concentrated test substances was added. […] In addition to the part of the plate containing the mentioned dilutions of test compounds there were always two control columns present, first column with medium alone (i.e. blank) and the second column with the cells in medium without test compounds (control). Into the blank and control wells the same volume of solvent (water) as the volume of the substances was added. After 72 hours of treatment with substances the measurement of viability was performed according to the manufacturer instructions. Briefly, into each well of a 96-well microtiter plate 50 μl of the prepared working solution of XTT (detection reagent) was added and then the microtiter plate was returned to the CO2 incubator. After 2 hours, the absorbance of each well at 492 nm (reference wavelength 690 nm) was measured using a multifunctional microplate reader (Tecan Genios, Austria).
(In general: Tetrazolium assays rely on reduction of a dye to a coloured formazan, in cell work by metabolically active cells.)

In assay [2] the test system is CCRF-CEM. Description: XTT cytotoxicity/proliferation assay, CCRF-CEM. The class given is cell-based. The note with it: Homo sapiens, CCRF-CEM. On the procedure: To assess the antiproliferative effects of the tested substances in vitro, tumor cell line CCRF-CEM derived from acute lymphoblastic leukemia and normal (healthy) HUVEC endothelial cells from umbilical vein were used. Both of these cell lines were cultured under optimal conditions for their growth in the appropriate medium in plastic bottles or plastic Petri dishes of various sizes (TPP, BD Biosciences) at 37° C., 5% CO2 and 95% humidity. HUVEC cells were purchased from BD Biosciences. CCRF-CEM cell line was obtained from ATCC/LGC Standards (American Type Cell Collection).
Suspension cell line CCRF-CEM is a continuous in vitro culture of acute lymphoblastic leukemia. Cell line CCRF-CEM was grown in RPMI 1640 medium (Sigma-Aldrich, cat. No. R8758) supplemented with 2 mmol·l^−1 glutamine (Invitrogen, cat. No. 35050-038), 10% fetal bovine serum (FBS; Sigma-Aldrich, cat. No. F9665), 100 IU/ml penicillin, 100 μg/ml streptomycin (Sigma-Aldrich, cat. No. P0781). Passaging was carried out 2-3 times a week. Population doubling time of CCRF-CEM cells under the used culture conditions is 20 hours.
For testing of the sensitivity of cell lines to studied helquats XTT cytotoxicity/proliferation assay for determination of cell viability was used. This method is based on the ability of metabolically active cells to reduce the yellow tetrazolium salt XTT to orange formazan. The rate of conversion is measured as the increase in absorbance at 492 nm and is proportional to the enzymatic activity of mitochondrial dehydrogenases and thus the number of metabolically active (viable) cells. The output is the IC50 value corresponding to the concentration of the test substance that causes a decrease in the number of viable cells by half (i.e. 50% slowdown of cell division) relative to the control, untreated population. Thus it reflects the effectiveness of the test substance towards the tested cell line.
Cells in exponential growth phase were plated into 96-well microtiter plate at a concentration of 3000 cells per well. Each well contained 90 μl of cell suspension. The following day, 10 μl of 10× concentrated test substances was added. Effect of helquats has been studied in the concentration range 1-100 μmol·l^−1 (or 1, 2.5, 5, 7.5, 10; 15; 25; 50 and 100 μmol·l^−1). In addition to the part of the plate containing the mentioned dilutions of test compounds there were always two control columns present, first column with medium alone (i.e. blank) and the second column with the cells in medium without test compounds (control). Into the blank and control wells the same volume of solvent (water) as the volume of the substances was added. After 72 hours of treatment with substances the measurement of viability was performed according to the manufacturer instructions. Briefly, into each well of a 96-well microtiter plate 50 μl of the prepared working solution of XTT (detection reagent) was added and then the microtiter plate was returned to the CO2 incubator. After 2 hours, the absorbance of each well at 492 nm (reference wavelength 690 nm) was measured using a multifunctional microplate reader (Tecan Genios, Austria).
The results of determination of the viability of cancer and normal cells after treatment with different concentrations of test substances are summarized in Table 9. […] Each concentration of a helquat was tested in triplicates within one IC50 value determination. Each of these IC50 value determinations was repeated in at least three independent experiments. Values above 100 μmol·l^−1 were obtained by extrapolation of data measured in the concentration range 0-100 μmol·l^−1 of helquats.

Assay [3] concerns c-myc protein. Description: Immunodetection of protein c-myc in HGC-27 cell lysates (Western blot). The class given is cell-based, human. The settings on record: 50 μmol · l^−1, 24 hour incubation, normalized to β-actin. On the procedure:
Determination of changes in c-myc protein expression (transcription factor) in cell lysates prepared from tumor cell line HGC-27 after treatment with test helquats (Tab. 7) was carried out by immunodetection after separation of proteins according to their size by gel electrophoresis (SDS-PAGE) and blotting.
To determine the influence helquats on expression of c-myc protein, the cells were cultured under standard conditions and in the exponential growth phase were seeded into flasks at a density of 25,000 cells/cm^2. The next day selected helquats were added at a concentration of 50 μmol·l^−1. After 24 hour incubation, the cell pellets were obtained and, after addition of RIPA buffer with protease inhibitors (PrIC) and phosphatases (PhIC) (for composition see Tab. 8) cell lysates were prepared. 150 μl of RIPA buffer was used for 10^7 cells. Protein concentrations in the lysates were measured by BCA method. Separation of proteins in the lysates was carried out on a 12% denaturing polyacrylamide gel. The separated proteins were transferred to PVDF membrane by Western blotting.
Incubation with primary mouse monoclonal antibody against the protein c-myc (dilution 1:1000 in “SignalBoost” reagent) was carried out overnight at 4° C., and then with the primary mouse anti-β-actin (1:5000 dilution in 5% milk in TBS-T buffer) at room temperature for 2 hours. Subsequently, the secondary horse monoclonal antibody conjugated to horseradish peroxidase (diluted 1:2000 in 5% milk in TBS-T buffer) binding to mouse IgG antibody was applied. C-myc proteins and β-actin bound to the membrane were visualized using detection kit (SuperSignal® West Femto Maximum Sensitivity Substrate, Cat. No. 34095, Thermo Fisher Scientific, Inc., USA) in the chemiluminescence detection system ImageQuant LAS 4000 Mini (Cat. No. 28-9558-13, GE Healthcare Life Sciences, USA). The amount of protein was quantified by densitometry in Quantity One software. The amount of c-myc in the samples was normalized to β-actin, and subsequently related to a control sample.
For orientation: Immunoblotting shows a protein as a band on a membrane.

Setting [4] is: 72 hours of treatment, values above 100 μmol·l^−1 obtained by extrapolation, read-out: IC50 HUVEC.
The mark [5] stands for this setting: 72 hours of treatment, read-out: IC50 CCRF CEM.

Read-outs that look alike come from different tables or passages of the source.

On to `C(=C\c1ccc(-c2cccs2)s1)/c1cc(/C=C/c2ccc(-c3cccs3)s2)[n+]2c(c1)-c1c(ccc3c1-c1cccc[n+]1CC3)CC2.O=S(=O)([O-])C(F)(F)F.O=S(=O)([O-])C(F)(F)F` [HTA-C9-16, 2,4-bis((E)-2-([2,2′-bithiophen]-5-yl)vinyl)-6,7,10,11-tetrahydrodipyrido[2,1-a:1′,2′-k][2,9]phenanthroline-5,12-diium trifluoromethanesulfonate], for which the IC50 in assay [1] (setting [4]) is 26 to 50 µM; in assay [2] (setting [5]), 11 to 25 µM. Besides, in assay [3], the “c-myc protein expression relative to control (control = 100%)” value is recorded as 32%.
For `C(=C\c1cc2ccccc2o1)/c1cc(/C=C/c2cc3ccccc3o2)[n+]2c(c1)-c1c(ccc3c1-c1cccc[n+]1CC3)CC2.O=S(=O)([O-])C(F)(F)F.O=S(=O)([O-])C(F)(F)F` [HTA-C9-17, 2,4-bis((E)-2-(benzofuran-2-yl)vinyl)-6,7,10,11-tetrahydrodipyrido[2,1-a:1′,2′-k][2,9]phenanthroline-5,12-diium trifluoromethanesulfonate], in that order: at least 51 µM, 26 to 50 µM and 44%.
As for `C(=C\c1cc2ccccc2[n+]2c1-c1c(ccc3c1-c1cccc[n+]1CCC3)CCC2)/c1ccc(-c2cccs2)s1.O=S(=O)([O-])C(F)(F)F.O=S(=O)([O-])C(F)(F)F` [MSC-C9-16, 19-((E)-2-([2,2′-bithiophen]-5-yl)vinyl)-6,7,8,11,12,13-hexahydropyrido[1′″,2′″:1″,2″]azepino[4″,3″:5′,6′]benzo[1′,2′:3,4]azepino[1,2-a]quinoline-5,14-diium trifluoromethanesulfonate], the IC50 is at least 100 µM in assay [1] (setting [4]); over 100 µM in assay [1] (72 hours, summary of table 9, read-out: concentrations non-toxic towards HUVEC cells); at most 10 µM in assay [2] (setting [5]); under 25 µM in assay [2] (72 hours, summary of table 9, read-out: concentrations toxic towards CCRF-CEM cells). Also, in assay [3], the “c-myc protein expression relative to control (control = 100%)” value is listed as 36%.
For `Brc1ccc2c(/C=C/c3cc4ccccc4[n+]4c3-c3c(ccc5c3-c3cccc[n+]3CCC5)CCC4)c[nH]c2c1.O=S(=O)([O-])C(F)(F)F.O=S(=O)([O-])C(F)(F)F` [MSC-C9-18, 19-((E)-2-(6-bromo-1H-indol-3-yl)vinyl)-6,7,8,11,12,13-hexahydropyrido[1′″,2′″:1″,2″]azepino[4″,3″:5′,6′]benzo[1′,2′:3,4]azepino[1,2-a]quinoline-5,14-diium trifluoromethanesulfonate], the IC50 is at least 51 µM in assay [1] (setting [4]) and 11 to 25 µM in assay [2] (setting [5]). Moreover, the “c-myc protein expression relative to control (control = 100%)” value in assay [3] came out at 31%.
Turning to `Cc1c(/C=C/c2cc3ccccc3[n+]3c2-c2c(ccc4c2-c2cccc[n+]2CCC4)CCC3)sc2ccccc12.O=S(=O)([O-])C(F)(F)F.O=S(=O)([O-])C(F)(F)F` [MSC-C10-36, 19-((E)-2-(3-methylbenzo[b]thiophen-2-yl)vinyl)-6,7,8,11,12,13-hexahydropyrido[1′″,2′″:1″,2″]azepino[4″,3″:5′,6′]benzo[1′,2′:3,4]azepino[1,2-a]quinoline-5,14-diium trifluoromethanesulfonate], the results for the IC50 in assay [1] (setting [4]) and in assay [2] (setting [5]) were at least 51 µM and at most 10 µM, respectively. Moreover, the “c-myc protein expression relative to control (control = 100%)” value in assay [3] worked out at 85%.

These data come from US9932339B2, “Helquats with heteroaromatic substituents, preparation thereof, and use thereof as G-quadruplex stabilizers” (USTAV ORGANICKE CHEMIE A BIOCHEMIE AV CR, V.V.I., priority 2014, dated 2018).
